Ends that are not written are not given here.
Legend:
[1] = test system: MOLM-13, MEC-1 and SU-DHL-4 cancer cell lines; settings: 24 h
Experimental: Anticancer activity of peptides against acute myeloid leukemia MOLM-13, chronic lymphocytic leukemia MEC-1, and diffuse large B-cell lymphoma SU-DHL-4 cell lines was tested using a WST cell viability assay. Cells were cultured in 75 cm^2 culture flasks at 37 °C in 5% CO2 according to the DSMZ recommendations before the start of the experiment. Then, the cells were seeded into 96-well plates in quadruplicate at 2.5 × 10^4 cells/well for SU-DHL-4, and 5 × 10^4 cells/well for MEC-1 and MOLM-13. Cells were treated with either peptides or PBS alone (negative control) for 24–72 h at 37 °C in 5% CO2. After incubation, cell viability was measured by WST-1 (Roche) according to the manufacturer’s instructions using Tecan microplate reader Infinite M200 PRO Plex and expressed as percentage compared to control.

[2] = test system: E. faecalis ATCC 700802 (VAN); settings: E. faecalis / ATCC 700802 / VAN / Prot. d; Prot. d
[3] = test system: E. faecium ATCC 19434T (WT); settings: E. faecium / ATCC 19434T / WT / Prot. b; Prot. b
[4] = test system: E. faecium ATCC 700221 (VAN, TEI); settings: E. faecium / ATCC 700221 / VAN, TEI / Prot. d; Prot. d
[5] = test system: E. faecium BM4147 (AMX, VAN); settings: E. faecium / BM4147 / AMX, VAN / Prot. b; Prot. b
[6] = test system: E. faecium Z906 (VAN, TEI, LNZ); settings: E. faecium / Z906 / VAN, TEI, LNZ / Prot. c; Prot. c
[7] = test system: K. pneumoniae ATCC 700603 (ESBL); settings: K. pneumoniae / ATCC 700603 / ESBL / Prot. a; Prot. a
[8] = test system: K. pneumoniae E1267 (GEN, AMI); settings: K. pneumoniae / E1267 / GEN, AMI / Prot. c; Prot. c
[9] = test system: P. aeruginosa K12 (AMI, IMI, MER, CTZ, PIT); settings: P. aeruginosa / K12 / AMI, IMI, MER, CTZ, PIT / Prot. c; Prot. c
[10] = test system: P. aeruginosa NCTC 13437 (ESBL); settings: P. aeruginosa / NCTC 13437 / ESBL / Prot. a; Prot. a
[11] = test system: S. aureus NRS1 (MRSA or VISA); settings: S. aureus / NRS1 / MRSA or VISA / Prot. a; Prot. a
[12] = test system: murine macrophages RAW 264.7; settings: 24 h
Method in brief: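 RAW 264.7 murine macrophages seeded at 4 × 10^4 cells/well in DMEM with 2% FBS, then exposed to peptides (2–128 μM) for 24 h at 37 °C. Viability by MTT (0.5 mg/mL, 4 h) reduction to formazan, dissolved in acidified isopropanol, read at OD570; untreated cells as negative control.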

[13] = single intraperitoneal dose at 10 times the MIC
Experimental: Neutropenic mice were infected intramuscularly (in the right thigh) with 10^6 cells per mL of Gram-negative A. baumannii (ATCC 19606).
(a) Schematic of the deep thigh infection model in which bacteria are injected intramuscularly at day 4 and peptides are administered intraperitoneally also at day 4 to assess their anti-infective activity. Mice were euthanized 4 days postinfection (day 8). Each group consisted of six mice (n = 6), and the bacterial loads used to infect the mice derived from three different inocula. […] Polymyxin B (0.006 mg/kg) and levofloxacin (0.014 mg/kg) were used as the reference antibiotics. Statistical significance was done using one-way ANOVA followed by Dunnett’s test. Violin plots represent the median, upper quartile, and lower quartile. (c) Mouse weight was monitored to exclude possible toxic effects of the peptides.
Six-week-old female CD-1 mice (obtained from Charles River; stock number 18679700-022) underwent neutropenia induction via two intraperitoneal doses of cyclophosphamide (150 mg kg^–^1) administered with a 72 h interval. One day later, the mice received an intramuscular injection containing A. baumannii ATCC 19606 (10^6 CFU mL^–1) in the right thigh. Bacteria were cultured in LB broth, washed twice with PBS (pH 7.4), and resuspended to the desired concentration. […] Polymyxin B (0.006 mg/kg) and levofloxacin (0.014 mg/kg) were used as the reference antibiotics. Prior to each injection, mice were anesthetized with isoflurane and their respiratory rate and pedal reflexes were monitored. Subsequently, we observed the infection establishment and euthanized the mice. The infected area was excised 4 days postinfection (i.e., 8 days after the beginning of the experiment), homogenized using a bead beater for 20 min (25 Hz), and 10-fold serially diluted for CFU quantification on MacConkey agar plates. Each experimental group comprised three mice. All experiments were conducted blindly, and no animals were excluded from the analysis. Statistical significance was assessed using one-way ANOVA followed by Dunnett’s test on log10-transformed data to mitigate outlier effects; p values are reported for each group, with all groups compared to the untreated control group.

Substance | IC50 [1] [µM] | MIC [2] [µM] | MIC [3] [µM] | MIC [4] [µM] | MIC [5] [µM] | MIC [6] [µM] | MIC [7] [µM] | MIC [8] [µM] | MIC [9] [µM] | MIC [10] [µM] | MIC [11] [µM] | IC50 [12] [µM] | Change in mouse weight [13]
H-HHHHLKKILKKLFQFINQLDNQLQDIHHHH-OH [LP40] | 1 to 20 |  |  |  |  |  |  |  |  |  |  |  | 
KKKKLKKILKKLFQFINQLDNQLQDIKQNK-NH2 [LP1] | < 10 | > 60 | > 32 | 12.5 | 16 | > 32 | 4 | > 32 | > 32 | > 16 | > 16 | 44 | no significant change in mouse weight
KKKKLKKILKKLFQFINQLDNQLQDIKKKK-NH2 [LP18] |  | > 60 | 15 | > 60 | 4 | 16 | 4 | > 32 | > 32 | 11 | > 16 | 25 | no significant change in mouse weight
